Where a name gives a salt, the structure may show the parent alone. Read-outs that look alike come from different tables or passages of the source.
Legend:
[1] = tested on: influenza A virus (A/PR/8/34); experiment: cytopathic effect (CPE) assay, MDCK cell protection by ATP detection; assay type: cell-based; conditions: mean IC50, MDCK cells, A/PR/8/34, 72 hours, 50% cell protection
[2] = tested on: Influenza virus, strain A/PR/8/34; experiment: microbe, parasite or virus in culture; assay type: cell-based
[3] = Influenza A virus, Table 1, read-out: Flu, MDCK IC50
[4] = unidentified influenza virus, PR/8, read-out: bDNA EC50 (uM)
[5] = Influenza A virus, Table 2, read-out: Flu MDCK IC50
[6] = Table 1, read-out: Flu, MDCK IC50

| SMILES | IC50 [1, 3] | EC50 [2, 4] | also measured |
| --- | --- | --- | --- |
| COC(=O)[C@H]1C2CCC(CC2)[C@@H]1Nc1nc(-c2n[nH]c3ncc(F)cc23)ncc1Cl (racemic) [Compound I-32, (+/−)-trans-(2,3)-methyl 3-((5-chloro-2-(5-fluoro-1H-pyrazolo[3,4-b]pyridin-3-yl)pyrimidin-4-yl)amino)bicyclo[2.2.2]octane-2-carboxylate] | < 3.3 µM | < 3.3 µM |  |
| O=C(O)[C@@H]1C2CCC(CC2)[C@H]1Nc1nc(-c2n[nH]c3ncc(Cl)cc23)ncc1F [Compound I-10, (2R,3R)-3-((2-(5-chloro-1H-pyrazolo[3,4-b]pyridin-3-yl)-5-fluoropyrimidin-4-yl)-amino)bicyclo[2.2.2]octane-2-carboxylic acid] | < 3.3 µM | < 3.3 µM |  |
| O=C(O)[C@H]1C2CCC(CC2)C1Nc1ccnc(-c2n[nH]c3ncc(F)cc23)n1 (mixture of isomers) [Compound I-43, (+/−)-trans-3-((2-(5-fluoro-1H-pyrazolo[3,4-b]pyridin-3-yl)pyrimidin-4-yl)amino)bicyclo[2.2.2]octane-2-carboxylic acid] |  | < 3.3 µM | IC50 [1, 5]: < 3.3 µM |
| O=C(N[C@@H]1CCC[C@H](Nc2nc(-c3n[nH]c4ncccc34)ncc2F)C1)N1CCCC1 [Compound I-12, N-((1R,3S)-3-((5-fluoro-2-(1H-pyrazolo[3,4-b]pyridin-3-yl)pyrimidin-4-yl)amino)cyclohexyl)pyrrolidine-1-carboxamide] | < 3.3 µM | < 3.3 µM |  |
| C[C@H]1CCN(C(=O)N[C@@H]2CCC[C@H](Nc3nc(-c4n[nH]c5ncccc45)ncc3F)C2)C1 [Compound I-25, (S)—N-((1R,3S)-3-((5-fluoro-2-(1H-pyrazolo[3,4-b]pyridin-3-yl)pyrimidin-4-yl)-amino)cyclohexyl)-3-methylpyrrolidine-1-carboxamide] | < 3.3 µM | < 3.3 µM |  |
| O=C(N[C@@H]1CCC[C@H](Nc2nc(-c3n[nH]c4ncc(F)cc34)ncc2F)C1)c1ccsc1 [Compound I-41, N-((1R,3S)-3-((5-fluoro-2-(5-fluoro-1H-pyrazolo[3,4-b]pyridin-3-yl)pyrimidin-4-yl)amino)cyclohexyl)thiophene-3-carboxamide] |  | < 3.3 µM | IC50 [1, 5]: < 3.3 µM |
| O=C(O)[C@H]1CCCC2(CCCC2)[C@H]1Nc1nc(-c2n[nH]c3ncc(F)cc23)ncc1F [Compound I-39, (6S,7S)-6-((5-fluoro-2-(5-fluoro-1H-pyrazolo[3,4-b]pyridin-3-yl)pyrimidin-4-yl)amino)spiro[4.5]decane-7-carboxylic acid] |  | < 3.3 µM | IC50 [1, 5]: < 3.3 µM |
| COC(=O)[C@H]1C2CCC(CC2)[C@@H]1Nc1nc(-c2n[nH]c3ncc(F)cc23)ncc1F (racemic) [Compound I-28, (+/−) trans-methyl 3-(5-fluoro-2-(5-fluoro-1H-pyrazolo[3,4-b]pyridin-3-yl)pyrimidin-4-ylamino)bicyclo[2.2.2]octane-2-carboxylate] | < 3.3 µM | < 3.3 µM |  |
| O=C(N[C@@H]1CCC[C@H](Nc2nc(-c3n[nH]c4ncccc34)ncc2F)C1)N1CC[C@@H](F)C1 [Compound I-19, (R)-3-fluoro-N-((1R,3S)-3-((5-fluoro-2-(1H-pyrazolo[3,4-b]pyridin-3-yl)pyrimidin-4-yl)amino)cyclohexyl)pyrrolidine-1-carboxamide] | < 3.3 µM | < 3.3 µM |  |
| O=C(N[C@@H]1CCC[C@H](Nc2nc(-c3n[nH]c4ncccc34)ncc2F)C1)N1CCCCC1 [Compound I-22, N-((1R,3S)-3-((5-fluoro-2-(1H-pyrazolo[3,4-b]pyridin-3-yl)pyrimidin-4-yl)amino)-cyclohexyl)piperidine-1-carboxamide] | < 3.3 µM | < 3.3 µM |  |
| O=C(N[C@@H]1CCC[C@H](Nc2nc(-c3n[nH]c4ncc(F)cc34)ncc2F)C1)c1csc(Cl)c1 [Compound I-47, 5-chloro-N-((1R,3S)-3-((5-fluoro-2-(5-fluoro-1H-pyrazolo[3,4-b]pyridin-3-yl)pyrimidin-4-yl)amino)cyclohexyl)thiophene-3-carboxamide] |  | < 3.3 µM | IC50 [1, 5]: < 3.3 µM |
| O=C(N[C@@H]1CCC[C@H](Nc2nc(-c3n[nH]c4ncccc34)ncc2F)C1)N1CCC(F)CC1 [Compound I-20] | < 3.3 µM | < 3.3 µM |  |
| O=C(O)[C@H]1C2CCCC(CC2)[C@@H]1Nc1nc(-c2n[nH]c3ncc(F)cc23)ncc1F (mixture of isomers) [Compound I-37, (+/−)-7-(5-fluoro-2-(5-fluoro-1H-pyrazolo[3,4-b]pyridin-3-yl)pyrimidin-4-ylamino)bicyclo[3.2.2]nonane-6-carboxylic acid] | < 3.3 µM | < 3.3 µM |  |
| COC(=O)[C@H]1C2CCCC(CC2)[C@@H]1Nc1nc(-c2n[nH]c3ncc(F)cc23)ncc1F (mixture of isomers) [Compound I-36, (+/−)-methyl 7-(5-fluoro-2-(5-fluoro-1H-pyrazolo[3,4-b]pyridin-3-yl)pyrimidin-4-ylamino)bicyclo[3.2.2]nonane-6-carboxylate] | < 3.3 µM | < 3.3 µM |  |
| O=C(N[C@@H]1CCC[C@H](Nc2nc(-c3n[nH]c4ncccc34)ncc2F)C1)N1CCOCC1 [Compound I-7] | < 3.3 µM | < 3.3 µM |  |
| O=C(O)[C@H]1C2CCC(CC2)[C@@H]1Nc1nc(-c2n[nH]c3ncccc23)ncc1F (racemic) [Compound I-11, (+/−)-trans-3-((5-fluoro-2-(1H-pyrazolo[3,4-b]pyridin-3-yl)pyrimidin-4-yl)amino)bicyclo-[2.2.2]octane-2-carboxylic acid] | < 3.3 µM | < 3.3 µM |  |
| O=C(N[C@@H]1CCC[C@H](Nc2nc(-c3n[nH]c4ncc(Cl)cc34)ncc2F)C1)N1CCCC1 [Compound I-3, N-((1R,3S)-3-((2-(5-chloro-1H-pyrazolo[3,4-b]pyridin-3-yl)-5-fluoropyrimidin-4-yl)amino)cyclohexyl)pyrrolidine-1-carboxamide] | < 3.3 µM | < 3.3 µM |  |
| O=C(O)[C@H]1C2CCC(CC2)[C@@H]1Nc1nc(-c2n[nH]c3ncc(F)cc23)ncc1F [Compound I-29] | < 3.3 µM | < 3.3 µM |  |
| O=C(O)C[C@H]1C2CCC(CC2)[C@@H]1Nc1nc(-c2n[nH]c3ncc(F)cc23)ncc1F [Compound I-48, 2-((2S,3S)-3-((5-fluoro-2-(5-fluoro-1H-pyrazolo[3,4-b]pyridin-3-yl)pyrimidin-4-yl)amino)bicyclo[2.2.2]octan-2-yl)acetic acid] |  | < 3.3 µM | IC50 [1, 5]: < 3.3 µM |
| O=C(O)[C@@H]1C2CCC(CC2)[C@H]1Nc1nc(-c2n[nH]c3ncc(F)cc23)ncc1Cl [Compound I-35, (2R,3R)-3-((5-chloro-2-(5-fluoro-1H-pyrazolo[3,4-b]pyridin-3-yl)pyrimidin-4-yl)amino)bicyclo[2.2.2]octane-2-carboxylic acid] | < 3.3 µM | < 3.3 µM |  |
| O=C(O)[C@H]1C2CCC(CC2)[C@@H]1Nc1nc(-c2n[nH]c3ncc(F)cc23)ncc1F [Compound I-31, (2S,3S)-3-(5-fluoro-2-(5-fluoro-1H-pyrazolo[3,4-b]pyridin-3-yl)pyrimidin-4-ylamino)bicyclo[2.2.2]octane-2-carboxylic acid sodium salt] |  |  | IC50 [1, 6]: < 3.3 µM; EC50 ([2]; read-out: bDNA EC50, Table 1, mean EC50, viral RNA level 50% of control wells): < 3.3 µM |
| O=C(N[C@@H]1CCC[C@H](Nc2nc(-c3n[nH]c4ncccc34)ncc2F)C1)N1CCC(F)(F)C1 [Compound I-16, 3,3-difluoro-N-((1R,3S)-3-((5-fluoro-2-(1H-pyrazolo[3,4-b]pyridin-3-yl)pyrimidin-4-yl)amino)cyclohexyl)pyrrolidine-1-carboxamide] | < 3.3 µM | < 3.3 µM |  |
| O=C(N[C@@H]1CCC[C@H](Nc2nc(-c3n[nH]c4ncc(Cl)cc34)ncc2F)C1)N1CCOCC1 [Compound I-1, N-((1R,3S)-3-((2-(5-chloro-1H-pyrazolo[3,4-b]pyridin-3-yl)-5-fluoropyrimidin-4-yl)amino)cyclohexyl)morpholine-4-carboxamide] | < 3.3 µM | < 3.3 µM |  |
| O=C(N[C@@H]1CCC[C@H](Nc2nc(-c3n[nH]c4ncc(F)cc34)ncc2F)C1)N1CC[C@@H](F)C1 [Compound I-23, (R)-3-fluoro-N-((1R,3S)-3-((5-fluoro-2-(5-fluoro-1H-pyrazolo[3,4-b]pyridin-3-yl)pyrimidin-4-yl)amino)cyclohexyl)pyrrolidine-1-carboxamide] | < 3.3 µM | < 3.3 µM |  |
| O=C(O)[C@H]1C2CCC(CC2)[C@@H]1Nc1nc(-c2n[nH]c3ncc(F)cc23)ncc1Cl [Compound I-34, (2S,3S)-3-((5-chloro-2-(5-fluoro-1H-pyrazolo[3,4-b]pyridin-3-yl)pyrimidin-4-yl)amino)bicyclo[2.2.2]octane-2-carboxylic acid] | < 3.3 µM | < 3.3 µM |  |
| Cn1cncc1C(=O)N[C@@H]1CCC[C@H](Nc2nc(-c3n[nH]c4ncc(F)cc34)ncc2F)C1 [Compound I-27, N-((1R,3S)-3-((5-fluoro-2-(5-fluoro-1H-pyrazolo[3,4-b]pyridin-3-yl)pyrimidin-4-yl)amino)cyclohexyl)-1-methyl-tH-imidazole-5-carboxamide] |  |  | IC50 [1, 6]: < 3.3 µM; EC50 ([2]; Table 1, mean EC50, viral RNA level 50% of control wells, read-out: bDNA EC50): < 3.3 µM |
| O=C(O)[C@H]1C2CCC(CC2)[C@@H]1Nc1nc(-c2n[nH]c3ncc(Cl)cc23)ncc1F (racemic) [Compound I-6, (+/−) trans-(2S,3S)-3-((2-(5-chloro-1H-pyrazolo[3,4-b]pyridin-3-yl)-5-fluoropyrimidin-4-yl)amino)bicyclo[2.2.2]octane-2-carboxylic acid] | < 3.3 µM | < 3.3 µM |  |
| C[C@H]1CCCN1C(=O)N[C@@H]1CCC[C@H](Nc2nc(-c3n[nH]c4ncccc34)ncc2F)C1 [Compound I-15, (S)—N-((1R,3S)-3-((5-fluoro-2-(1H-pyrazolo[3,4-b]pyridin-3-yl)pyrimidin-4-yl)-amino)cyclohexyl)-2-methylpyrrolidine-1-carboxamide] | < 3.3 µM | < 3.3 µM |  |

From patent publication US8871774B2, “Inhibitors of influenza viruses replication” (priority 2010, dated 2014)
